Data from US20240085429A1, “ALTERING PROTEIN FUNCTION BY PHARMACOLOGICAL TARGETING OF MEMBRANE DOMAINS” (University of Virginia Patent Foundation, priority 2021, published 2024).
Structures can show the parent of a compound that is named as a salt.

Assays:
[1] = test system: GPMVs from HeLa cells; assay: Di4 fluorescence lifetime imaging (lipid packing in GPMVs); design: species or system human; settings: TLCK 1 μM, C6-ceramide 1 μM, MβCD 5 mM
Source text: It was also of interest how TLCK and C6-ceramide impact other properties of the membrane compared to treatments such as cholesterol depletion that are commonly used to disrupt rafts in cells (Zidovetzki & Levitan, 2007). To test this, we examined their effects on membrane lipid packing and fluidity using a fluorescent reporter of membrane packing, Di-4-[…] (Di4) (Jin et al., 2006; Owen et al., 2006; Sezgin et al., 2014; Levental et al., 2020b; Lorent et al., 2020). As a control, we subjected GPMVs to cholesterol depletion using 5 mM MβCD. The photophysical characteristics of Di4, including its lifetime, are dependent on lipid packing in membranes. In particular, a lower Di4 lifetime is indicative of loose packing and a more fluid membrane environment whereas higher Di4 lifetimes point to a less fluid membranes and tighter lipid packing. […] The phase separated vesicles were characterized by two populations of lifetimes, corresponding to the Lo phase (higher lifetime) and Ld phase (lower lifetime) (FIGS. 11A-11F).
GPMVs were prepared as previously described by Sezgin, E, et al., Nat Protoc 2012, 7 (6), 1042-51. In brief, HeLa cells were washed twice with GPMV buffer (2 mM CaCl2)/10 mM HEPES/0.15 M NaCl, pH 7.4), then washed twice with GPMV active buffer (GPMV buffer containing 25 mM formaldehyde and 2 mM DTT). Cells were then incubated with GPMV active buffer for 1-2 hours at 37° C. with shaking at 90-95 RPM. The GPMV-containing supernatant was decanted into a centrifuge tube and GPMVs were allowed to settle for 1 h. Aliquots of GPMVs (100 μL) were pipetted from the bottom of the Eppendorf tube into separate tubes and treated with DMSO (0.1%), 1 μM TLCK, 1 μM C6-ceramide or 5 mM MbCD. After 5 min, Di 4 […] (Di4) (Thermo Scientific) was added to a final concentration of […] from a stock solution of 1 mg/mL Di4 in ethanol. The GPMVs were then sandwiched between two coverslips coated with 1 mg/mL bovine serum albumin (BSA) solution and allowed to incubate for an additional 20 min prior to lifetime measurements.
Di4 lifetime images were performed on a Leica TCS SP8 system comprising a Leica DMi8 inverted scanning confocal microscope with time-correlated single photon counting (TC-SPC) system and an 80 MHz-pulsed supercontinuum white light laser which allows continuously tunable excitation in the visible range coupled with filter-free detection. Samples were imaged using an HC PL APO CS2 63X/1.20 water objective. Di4 was excited at 488 nm and the emission was collected in the 550-800 nm range. The photon count rate was kept under 0.5 photons per laser pulse by adjusting the laser power, and sufficient frames were cumulatively acquired to obtain at least 100 photons per pixel. The fluorescence decay curves were fit with a bi-exponential re-convolution function adjusted to the instrument response function, and the average intensity-weighted lifetime was calculated for individual vesicles or area of interest and represented in the FLIM images as Di4 lifetime. Data are reported from two independent experiments. Statistical analyses were performed using GraphPad Prism 9.3.0.

[2] = test system: human peripheral myelin protein 22 (PMP22); assay: HTS of FDA-approved drug library for compounds that alter phase partitioning of PMP22 in GPMVs; settings: for shift of PMP22 phase preference in favor of the ordered (raft) phase / hit class in PMP22 screen: 10 micromolar; for shift of PMP22 phase preference in favor of the ordered (raft) phase: control value 78%, reproducible at 1 micromolar; for hit class in PMP22 screen: 1184 compound library of FDA-approved drugs; for effect on relative ordered (raft) vs. disordered phase proportions: in the absence or presence of PMP22
Source text: By way of example and not limitation, in some embodiments PMP22 containing a MYC epitope sequence was employed in the GPMVs (hereafter referred to as “PMP22”, such as by expressing a MYC-Tagged PMP22 in Hela cells, followed by formation of PMP22 containing GPMVs, followed by addition of a commercial fluorescently labeled anti-MYC antibody to confer fluorescence to PMP22 in GPMVs, thereby making PMP22 detectable to enable its quantitation in the raft phase domains versus in the non-raft phase domains. See Marinko et al. (2020) Proc Natl Acad Sci USA 117(25):14168-14177.
The assay was scaled up to carry out high throughput screens (HTS). The strategy for these screens is similar to those outlined for our approach to finding compounds that shift the raft vs. non-raft phase domain distribution in GPMVs, except that in this case we were interested in discovering compounds that either shift PMP22 out of rafts or enhance its partitioning into the ordered raft phase domain. This pilot HTS screen involved the 1184 compound library of FDA-approved drugs at a concentration of 10 micromolar each and was carried out in the Vanderbilt HTS Core. We predicted that select compounds might sometimes change not only the phase partitioning of PMP22, but also change the actual amounts of ordered (raft) versus disordered phase domains that are present. We also wondered whether PMP22 and certain compounds might act synergistically (through any one of several possible mechanisms) to alter membrane phase behavior. This could potentially cause the compounds to have different effects on the ratio of raft versus disordered domains in the absence relative to the presence of the PMP22 protein. To test these possibilities, we compared the results of our screen to the results of preliminary screens carried out on the same compounds in GPMVs lacking expressed PMP22. This allowed us to directly evaluate the effects of the compounds under both conditions. The plots shown in FIGS. 28A and 28B, as well as additional data not shown reveal several classes of PMP22-impacting hits from this 1184 compound library: […]

| Compound | phase state of GPMVs in FLIM images ([1]; room temperature) | average Di4 lifetime ([1]; single-phase GPMVs (MβCD: average across all domains), control 2.53±0.06 ns, mean±SD) | shift of PMP22 phase preference in favor of the ordered (raft) phase [2] | hit class in PMP22 screen [2] | effect on relative ordered (raft) vs. disordered phase proportions [2] |
| --- | --- | --- | --- | --- | --- |
| MβCD | multiple domains with the same lifetime | 1.99±0.09 ns |  |  |  |
| Clc1ccc2c(c1)CCc1cccnc1C2=C1CCNCC1 [Desloratadine] |  |  | ~10% | Class I | without significantly perturbing |
| CN(C)c1ccc(C(=C2C=CC(=[N+](C)C)C=C2)c2ccc(N(C)C)cc2)cc1 [Crystal violet] |  |  |  | false positive |  |
| CSc1ccc2c(c1)N(CCC1CCCCN1C)c1ccccc1S2 (stereo not drawn) [Thioridazine-HCl] |  |  | ~10% | Class I | without significantly perturbing |
